Test results published in patent US20180311238A1, “Selective Agonist Of a6 Containing nAChRs” (Saniona A/S, priority 2017, published 2018).

What was measured:
[1] = tested on: reserpine-induced tremors; experiment: Reserpine-induced tremors in rats (tremor monitor power spectra); type: in vivo, rat; settings: reserpine 1 mg/kg i.v.; compound 0.1 and 1.0 mg/kg s.c.; L-DOPA 100 mg/kg i.p. + benserazide
Text: Parkinson's disease is associated with severe dopamine deficiency caused by neurodegeneration of dopaminergic cell bodies residing in Substantia Nigra pars compacta. As alpha6 nAChRs are enriched in the nigrostriatal dopamine pathway, activating this receptor may ameliorate symptoms in nigro-striatal dopamine deficiency models. Reserpine injections to rodents result in depletion of monoamines in the nigro-striatal dopamine pathway, resulting in catalepsy and tremors. Both behaviours can be quantified using dedicated tremor boxes.
Six groups of male Sprague Dawley rats (250-300 grams) were subjected to the following treatment schedules, and effects on power spectra, assessed in automated tremor monitors were evaluated for 30 minutes: • Vehicle+vehicle • Vehicle+reserpine (1 mg/kg) • 9-Methyl-3-pyridin-3-yl-3,9-diaza-bicyclo[3.3.1]nonane (0.1 mg/kg)+reserpine (1 mg/kg) • 9-Methyl-3-pyridin-3-yl-3,9-diaza-bicyclo[3.3.1]nonane (1.0 mg/kg)+reserpine (1 mg/kg) • L-DOPA (100 mg/kg)+reserpine (1 mg/kg) • 9-Methyl-3-pyridin-3-yl-3,9-diaza-bicyclo[3.3.1]nonane (1.0 mg/kg)+L-DOPA (100 mg/kg)+reserpine (1 mg/kg)
Reserpine was pre-treated i.v. 60 minutes prior to test start in a dose volume of 2 ml/kg. 9-Methyl-3-pyridin-3-yl-3,9-diaza-bicyclo[3.3.1]nonane was pre-treated s.c. 45 minutes prior to test start in a dose volume of 1 ml/kg. The dose of 9-methyl-3-pyridin-3-yl-3,9-diaza-bicyclo[3.3.1]nonane was based on 3H-epibatidin displacement studies showing half maximal displacement of specific binding of 3H-epibatidin in doses equaling 0.15 mg/kg in rats. L-DOPA was pre-treated i.p. 30 minutes prior to test start in a dose volume of 5 ml/kg. […] All animals dosed with L-DOPA was also dosed with the peripherally acting decarboxylase inhibitor Benserazide to prevent the peripheral break down of L-DOPA (benserazide: 50 mg/kg, s.c., 30 min. prior to test start in a dose volume of 1 ml/kg).

[2] = tested on: rat striatal synaptosomes; experiment: 3H-dopamine release from rat striatal synaptosomes; type: cell-based; settings: fraction of release relative to total releasable dopamine
Procedure: Brains from Sprague-Dawley or Wistar rats (200-400 g) were dissected. Tissue from three rat brains yields enough material for one 96-well plate. Striata were dissected on an ice-chilled platform and placed in 12 ml ice-cold dissection buffer. The tissue was hereafter homogenized for 5-10 sec using a motor driven Teflon pestle in a glass homogenizing vessel. The homogenate was centrifuged at 1000×g for 10 min at 4° C. The resulting supernatant was then re-centrifuged at 12,000×g for 20 min at 4° C. The final crude P2 synatosomal fraction was re-suspended in oxygenated (equilibrated with an atmosphere of 96% O2: 4% CO2 for at least 30 min) Krebs bicarbonate buffer (0.5 ml/100 mg wet tissue weight) containing 100 nM ^3H-dopamine (3.9 μl/100 mg wet tissue weight) and incubated at 37° C. for 10 min. Pargyline was added to the buffer to prevent degradation of ^3H-dopamine.
The ^3H-dopamine loaded synaptosomes were centrifuged at 1000×g for 5 min at room temperature. […]
Following the collection of stimulated release, 75 μl Solvable™ was added to each well and allowed to incubate for at least 45 min to extract remaining ^3H-DA from the sample. […] Radioactivity from each collection was determined by conventional liquid scintillation counting using a Packard Topcount™ counter. […]

## CN1C2CCCC1CN(c1cccnc1)C2 [9-methyl-3-pyridin-3-yl-3,9-diaza-bicyclo[3.3.1]nonane]
[1]
  effect on reserpine-induced tremors, AUC 40-63 Hz: dose-related reversal of reserpine tremors reaching statistical significance at 1.0 mg/kg
  reversal of reserpine-induced reduction of low frequency movements (catalepsy), AUC 3-13 Hz: Neither threshold dose of L-DOPA, nor 9-methyl-3-pyridin-3-yl-3,9-diaza-bicyclo[3.3.1]nonane or the combination of the two, was able to reverse this reduction
[2]
  3H-dopamine release: concentration-dependently stimulates
